Experimental data as given in PMC2809102, “Two New Pimelic Diphenylamide HDAC Inhibitors Induce Sustained Frataxin Upregulation in Cells from Friedreich's Ataxia Patients and in a Mouse Model” (PLoS ONE, 2010).

Legend:
[1] = system: FXN gene expression; set-up: method as in PMID 16921367, PMID 18463734; details: FRDA patient cells; cited from earlier work
[2] = system: FXN mRNA in healthy volunteers PBMCs; assay: FXN mRNA by qRT-PCR in PBMCs from healthy volunteers; assay type: cell-based, human; details: 10 µM, 48 h
[3] = system: frataxin mRNA in PBMC from FRDA patients; assay: FXN mRNA by quantitative real-time RT-PCR in unstimulated PBMC from FRDA patients; assay type: cell-based, human; details: 10 µM
[4] = system: frataxin mRNA in KIKI splenocytes; assay: Fxn mRNA by qRT-PCR in unstimulated KIKI mouse splenocytes; assay type: cell-based; details: 10 µM, 48 hours
[5] = system: histone acetylation H3K14 and H4K5 at fxn gene; assay: ChIP of H3K14 and H4K5 acetylation upstream of GAA repeat in KIKI mouse brain; assay type: in vivo; details: KIKI mice, 50 or 150 mg/kg s.c.
[6] = system: frataxin mRNA in brain and heart of KIKI mice; assay: Fxn mRNA by qRT-PCR in brain and heart of KIKI mice after single subcutaneous injection; assay type: in vivo, mouse
[7] = Levels of compound in mouse brain and plasma after single injection; assay type: in vivo; details: single 150 mg/Kg injection
[8] = system: frataxin in brain and heart of wild-type mice; set-up: method as in PMID 16921367; details: cited from earlier work

Nc1ccccc1NC(=O)CCCCCCC(=O)Nc1ccccc1 [BML-210]
effect on FXN gene expression [1]: relieve repression of the FXN gene

Cc1ccc(C(=O)NCCCCCC(=O)Nc2ccc(F)cc2N)cc1 [compound 136]
FXN mRNA in healthy volunteers PBMCs [2]: not overall significantly affected | FXN mRNA trend in healthy volunteers PBMCs ([2]; non-significant): trend toward downregulation | effect on frataxin mRNA ([3]; 48 h, compared to 10 µM compound 106): limited effect | frataxin mRNA upregulation in mouse splenocytes [4]: significant | histone acetylation H3K14 and H4K5 upstream of GAA repeat, brain [5]: increase in histone acetylation | frataxin mRNA in brain ([6]; single s.c. 150 mg/kg, 24 hours after injection): increase in frataxin mRNA in the brain to wild-type levels | Fxn mRNA in heart ([6]; single s.c. dose, only at 50 or 150 mg/kg (not 5, 15), p = 0.009 and 0.008): significantly increased | Fxn mRNA in brain ([6]; single s.c. dose, only at 50 or 150 mg/kg (not 5, 15), p<0.001): significantly increased

CC(/C=C/C(=O)NO)=C\[C@@H](C)C(=O)c1ccc(N(C)C)cc1 [TSA, trichostatin A]
effect on FXN gene expression [1]: inactive

O=C(CCCCCCC(=O)Nc1ccccc1)NO [SAHA, suberoylanilide hydroxamic acid]
effect on FXN gene expression [1]: inactive

Cc1ccc(C(=O)NCCCCCC(=O)Nc2ccccc2N)cc1 [compound 109]
time to total elimination from brain and plasma [7]: < 4 h

Cc1ccc(NC(=O)CCCCCC(=O)Nc2ccccc2N)cc1 [compound 106, N ^1-(2-aminophenyl)-N ^7-p-tolylheptanediamide, reference compound]
increase of frataxin mRNA levels, average ([3]; 48-hour incubation, average of patients, DMSO = 1): 3.6 fold | frataxin mRNA upregulation in mouse splenocytes [4]: significant | frataxin upregulation in brain and heart of wild-type mice [8]: no frataxin upregulation
